Results on 21 compounds are retold here after US20260258086A1 (priority 2021, published 2026).

Like-named read-outs stand apart in the source and are kept apart here. Numbered stars: 1 amine (or outer) side, 2 acyl side, 3 side chain; on linkers, the order of the positions; unused ones are H or OH. Bridge positions count the residues as written; N and C are the ends. Square brackets hold non-standard residues; d marks the D form. Peptide text beside a SMILES is read from it. X4 = O=C([C@@H](Cc1c([*:3])[nH]c2ccc(O)cc12)N[*:1])[*:2]; X2 = O=C([C@@H](Cc1c([*:3])[nH]c2ccccc12)N[*:1])[*:2]; Ile(4R-OH,5-OH) = C[C@H]([C@H](N)C(=O)O)[C@@H](O)CO; X5 = C[C@@H](S[*:3])[C@H](N[*:1])C(=O)[*:2]; X1 = C[C@H](S[*:3])[C@H](N[*:1])C(=O)[*:2]; X3 = CS[C@H](C)[C@H](N[*:1])C(=O)[*:2]; Gly(cPent) = N[C@H](C(=O)O)C1CCCC1; Nva(3-Et) = CCC(CC)[C@H](N)C(=O)O; Hyp = O=C(O)[C@@H]1C[C@@H](O)CN1; Pen = CC(C)(S)[C@H](N)C(=O)O Bounds are passed on as bounds.

The target of one data set is Pol II (Homo sapiens, UniProt P24928). Kind of data set: biochemical. In kind it is biochemical.
A further data set has as its system white mice. The settings on record: mouse, in vivo; cited from earlier work.
A further data set deals with calf thymus RNAP II (Bos taurus, UniProt G3MZY8). The settings on record: cited from earlier work.
In another data set the test system is SK-BR-3 cells. In kind it is cell-based. Conditions: read-out: IC50, cell viability on SK-BR-3 cells.

As for `CC[C@H](C)[C@@H]1NC(=O)CNC(=O)[C@H]2Cc3c([nH]c4ccccc34)S[C@@H](C)[C@H](NC(=O)CNC1=O)C(=O)N[C@@H](CC(N)=O)C(=O)N1C[C@H](O)C[C@H]1C(=O)N[C@@H]([C@@H](C)[C@@H](O)CO)C(=O)N2` [Compound I(i), (2R,3S)-β-Methyl-Cys^8-Dideoxyamanitin] (cyclo(GIG[X1]N[Hyp][Ile(4R-OH,5-OH)][X2]); thioether 4-8), the IC50 (in general, the point on the concentration scale where inhibition reaches its midpoint) is 240 ± 50 nM in the data set on HEK293 cells and 610 ± 170 nM in the data set with CHO cells.
Consider `CC[C@H](C)[C@@H]1NC(=O)CNC(=O)[C@H]2Cc3c([nH]c4ccccc34)S[C@H](C)[C@H](NC(=O)CNC1=O)C(=O)N[C@@H](CC(N)=O)C(=O)N1C[C@H](O)C[C@H]1C(=O)N[C@@H]([C@@H](C)[C@@H](O)CO)C(=O)N2` [Compound I(ii), (2R,3R)-β-Methyl-Cys^8-Dideoxyamanitin] (cyclo(GIG[X5]N[Hyp][Ile(4R-OH,5-OH)][X2]); thioether 4-8), for which, in the data set with CHO cells, the IC50 was greater than 15000 nM. Moreover, the inhibition constant (Ki) (as a rule, a dissociation constant, usually derived from enzyme kinetics or from competition with a known ligand) at Pol II is greater than 1000 nM.
For the compound `CC[C@H](C)[C@@H]1NC(=O)CNC(=O)[C@H]2Cc3c([nH]c4ccccc34)SC(C)(C)[C@H](NC(=O)CNC1=O)C(=O)N[C@@H](CC(N)=O)C(=O)N1C[C@H](O)C[C@H]1C(=O)N[C@@H]([C@@H](C)[C@@H](O)CO)C(=O)N2` [Compound I(iii), Pen^8-Dideoxyamanitin] (cyclo(GIG[Pen]N[Hyp][Ile(4R-OH,5-OH)][X2]); thioether 4-8), in the data set on CHO cells, half-maximal inhibition (IC50) required 2700 ± 590 nM and the “cytotoxicity compared with α-amanitin, in words” value is reported as “intermediately toxic”.
Regarding `CC[C@H](C)[C@@H]1NC(=O)CNC(=O)[C@H]2Cc3c([nH]c4ccccc34)SC[C@H](NC(=O)CNC1=O)C(=O)N[C@@H](CC(N)=O)C(=O)N1C[C@H](O)C[C@H]1C(=O)N[C@@H]([C@@H](C)[C@@H](O)CO)C(=O)N2` [Compound I(iv), aza-Gly^7-Dideoxyamanitin] (cyclo(CN[Hyp][Ile(4R-OH,5-OH)][X2]GIG); thioether 1-5), the IC50 with HepG2 cells was 5600 ± 780 nM; with HEK293 cells, 260 ± 70 nM; with CHO cells, 170 ± 30 nM; with HeLa cells it was 3300 ± 390 nM. Moreover, the “cytotoxicity, in words” value in the data set with HEK293 cells and in the data set on HeLa cells was “increased cytotoxicity” in each case.
Consider `CC[C@H](C)[C@@H]1NC(=O)CNC(=O)[C@H]2Cc3c([nH]c4ccccc34)SC[C@H](NC(=O)CNC1=O)C(=O)N[C@@H](CC(N)=O)C(=O)N1C[C@H](O)C[C@H]1C(=O)N[C@@H]([C@@H](C)[C@@H](O)CO)C(=O)N2` [Compound I(ix), aza-Gly^5-Dideoxyamanitin] (cyclo(CN[Hyp][Ile(4R-OH,5-OH)][X2]GIG); thioether 1-5), for which the IC50 in the data set with HEK293 cells stood at 210 ± 50 nM. In the data set on CHO cells, half-maximal inhibition (IC50) was put at 1900 ± 520 nM and the “cytotoxicity compared with α-amanitin, in words” value is given as “only a two-fold reduction in cytotoxicity”.
For `CS[C@H](C)[C@@H]1NC(=O)CNC(=O)[C@H]2Cc3c([nH]c4ccccc34)SC[C@H](NC(=O)CNC1=O)C(=O)N[C@@H](CC(N)=O)C(=O)N1C[C@H](O)C[C@H]1C(=O)N[C@@H]([C@@H](C)[C@@H](O)CO)C(=O)N2` [Compound I(v), Thia-Ile^6-Dideoxyamanitin] (cyclo(CN[Hyp][Ile(4R-OH,5-OH)][X2]G[X3]G); thioether 1-5), the IC50 in the data set with HepG2 cells is greater than 20000 nM; in the data set with HEK293 cells, 830 ± 150 nM; in the data set with CHO cells, 4400 ± 730 nM; with HeLa cells, 16000 ± 2300 nM. The “Pol II / transcription inhibition, in words” value at Pol II is recorded as “high Pol II inhibition”.
Turning to `CO[C@H](C)[C@@H]1NC(=O)CNC(=O)[C@H]2Cc3c([nH]c4ccccc34)SC[C@H](NC(=O)CNC1=O)C(=O)N[C@@H](CC(N)=O)C(=O)N1C[C@H](O)C[C@H]1C(=O)N[C@@H]([C@@H](C)[C@@H](O)CO)C(=O)N2` [Compound I(vi), Oxo-Ile^6-Dideoxyamanitin] (cyclo(CN[Hyp][Ile(4R-OH,5-OH)][X2]GT(Me)G); thioether 1-5), in the data set on CHO cells, the IC50 is greater than 15000 nM and the “cytotoxicity compared with α-amanitin, in words” value is “no observable cytotoxicity”.
Consider `CCC(CC)[C@@H]1NC(=O)CNC(=O)[C@H]2Cc3c([nH]c4ccccc34)SC[C@H](NC(=O)CNC1=O)C(=O)N[C@@H](CC(N)=O)C(=O)N1C[C@H](O)C[C@H]1C(=O)N[C@@H]([C@@H](C)[C@@H](O)CO)C(=O)N2` [Compound I(vii), Diethylala^6-Dideoxyamanitin] (cyclo(CN[Hyp][Ile(4R-OH,5-OH)][X2]G[Nva(3-Et)]G); thioether 1-5), for which the IC50 was 170 ± 30 nM in the data set on HEK293 cells and 380 ± 110 nM in the data set on CHO cells.
For `C[C@H]([C@@H]1NC(=O)[C@@H]2C[C@@H](O)CN2C(=O)[C@H](CC(N)=O)NC(=O)[C@@H]2CSc3[nH]c4ccccc4c3C[C@@H](NC1=O)C(=O)NCC(=O)N[C@@H](C1CCCC1)C(=O)NCC(=O)N2)[C@@H](O)CO` [Compound I(viii), Cyclopentylgly^6-Dideoxyamanitin] (cyclo(CN[Hyp][Ile(4R-OH,5-OH)][X2]G[Gly(cPent)]G); thioether 1-5), in the data set on CHO cells, the IC50 worked out at 1700 ± 270 nM and the “cytotoxicity compared with α-amanitin, in words” value is “considerably diminished toxicity”.
With `CCC(CC)[C@@H]1NC(=O)CNC(=O)[C@H]2Cc3c([nH]c4ccc(O)cc34)SC[C@H](NC(=O)CNC1=O)C(=O)N[C@@H](CC(N)=O)C(=O)N1C[C@H](O)C[C@H]1C(=O)N[C@@H]([C@@H](C)[C@@H](O)CO)C(=O)N2` [Compound I(xi), 5-OH Trp^4, Diethylala^6-Deoxyamanitin] (cyclo(CN[Hyp][Ile(4R-OH,5-OH)][X4]G[Nva(3-Et)]G); thioether 1-5), the figures for the concentration for half-maximal inhibition (IC50) with HEK293 cells and with CHO cells were 80 ± 10 nM and 1200 ± 330 nM, respectively.
As for `CCC(CC)[C@@H]1NC(=O)CNC(=O)[C@H]2Cc3c([nH]c4ccccc34)S[C@@H](C)[C@H](NC(=O)CNC1=O)C(=O)N[C@@H](CC(N)=O)C(=O)N1C[C@H](O)C[C@H]1C(=O)N[C@@H]([C@@H](C)[C@@H](O)CO)C(=O)N2` [Compound I(xii), Diethylala^6, (2R,3S)-β-Methyl-Cys^8-Dideoxyamanitin] (cyclo(G[Nva(3-Et)]G[X1]N[Hyp][Ile(4R-OH,5-OH)][X2]); thioether 4-8), the concentration for half-maximal inhibition (IC50) in the data set with HepG2 cells is 5700 ± 1100 nM; with HEK293 cells, 110 ± 30 nM; in the data set on CHO cells it was 290 ± 70 nM; in the data set on HeLa cells it was 2400 ± 300 nM. For the same compound, the “cytotoxicity, in words” value in the data set on HEK293 cells and in the data set on HeLa cells was “increased cytotoxicity” in each case. In addition, the “toxicity relative to α-amanitin (times / -fold as toxic)” value in the data set on HEK293 cells is on record as 5; in the data set with CHO cells, 2.
With `CCC(CC)[C@@H]1NC(=O)CNC(=O)[C@H]2Cc3c([nH]c4ccc(O)cc34)S[C@@H](C)[C@H](NC(=O)CNC1=O)C(=O)N[C@@H](CC(N)=O)C(=O)N1C[C@H](O)C[C@H]1C(=O)N[C@@H]([C@@H](C)[C@@H](O)CO)C(=O)N2` [Compound I(xiii), 5-OH Trp^4, Diethylala^6, (2R,3S)-β-Methyl-Cys^8-Deoxyamanitin] (cyclo(G[Nva(3-Et)]G[X1]N[Hyp][Ile(4R-OH,5-OH)][X4]); thioether 4-8), the values for the IC50 with HEK293 cells and with CHO cells were 240 ± 50 nM and 1170 ± 370 nM, respectively.
On to `CC[C@H](C)[C@@H]1NC(=O)CNC(=O)[C@@H]2Cc3c([nH]c4ccccc34)[S+]([O-])C[C@H](NC(=O)CNC1=O)C(=O)N[C@@H](CC(=O)O)C(=O)N1C[C@H](O)C[C@H]1C(=O)N[C@@H]([C@@H](C)[C@@H](O)CO)C(=O)N2` (stereo partly shown) [amanin], for which the median lethal dose (LD50) (as a rule, the dose expected to kill half of the subjects tested) in the data set on white mice was 0.3 mg/kg. At calf thymus RNAP II, the inhibitory constant (Ki) was 5 nM.
As for `CC[C@H](C)[C@@H]1NC(=O)CNC(=O)[C@@H]2Cc3c([nH]c4ccccc34)[S+]([O-])C[C@H](NC(=O)CNC1=O)C(=O)N[C@@H](CC(N)=O)C(=O)N1C[C@H](O)C[C@H]1C(=O)N[C@@H]([C@@H](C)[C@@H](O)CO)C(=O)N2` (stereo partly shown) [amaninamide], the LD50 in the data set on white mice is 20 mg/kg. The Ki at calf thymus RNAP II is 5 nM.
Take `CC[C@H](C)[C@@H]1NC(=O)CNC(=O)[C@@H]2Cc3c([nH]c4cc(O)ccc34)[S+]([O-])C[C@H](NC(=O)CNC1=O)C(=O)N[C@@H](CC(N)=O)C(=O)N1C[C@H](O)C[C@H]1C(=O)N[C@@H]([C@@H](C)CC)C(=O)N2` (stereo partly shown) [amanullin]: in the data set on white mice, the LD50 is greater than 20 mg/kg. Besides, the Ki at calf thymus RNAP II was 10 nM.
Regarding `CC[C@H](C)[C@@H]1NC(=O)CNC(=O)[C@@H]2Cc3c([nH]c4cc(O)ccc34)[S+]([O-])C[C@H](NC(=O)CNC1=O)C(=O)N[C@@H](CC(=O)O)C(=O)N1CCC[C@H]1C(=O)N[C@@H]([C@@H](C)CC)C(=O)N2` (stereo partly shown) [proamanullin], the LD50 in the data set on white mice is recorded as greater than 20 mg/kg.
Turning to Herceptin, in the data set with SK-BR-3 cells, the IC50 was greater than 1000 nM.
With amanullinic acid, the median lethal dose (LD50) with white mice was greater than 20 mg/kg.
For the compound β-amanitin, the median lethal dose (LD50) in the data set with white mice is reported as 0.5 mg/kg. Further, the inhibition constant Ki on calf thymus RNAP II (read-out: Ki) is 2.5 nM.
As for γ-amanitin, the median lethal dose (LD50) in the data set on white mice was 0.2 mg/kg. For the same compound, the Ki at calf thymus RNAP II (read-out: Ki) is 5 nM.
In the case of ε-amanitin, the LD50 in the data set on white mice is 0.3 to 0.6 mg/kg.
